Test results from patent US20050197338A1, “Substituted pyrazole urea compounds for the treatment of inflammation” (priority 2003, published 2005).

These compounds were tested against T1, human IKK-2 (rhIKK-2 homodimer) (Homo sapiens, UniProt O14920) (assay: IKK-2 Resin Enzyme Assay (Human IKK-2 Enzyme Assay)). Conditions: human IKK-2, resin enzyme assay; read-out: IC50 (μM) hIKK-2.
T1 construct: FLAG (DYKDDDDKD) (C); made in house; host or cells: insect cells (baculovirus, pFastBac)
T1 sequence (O14920 1-756): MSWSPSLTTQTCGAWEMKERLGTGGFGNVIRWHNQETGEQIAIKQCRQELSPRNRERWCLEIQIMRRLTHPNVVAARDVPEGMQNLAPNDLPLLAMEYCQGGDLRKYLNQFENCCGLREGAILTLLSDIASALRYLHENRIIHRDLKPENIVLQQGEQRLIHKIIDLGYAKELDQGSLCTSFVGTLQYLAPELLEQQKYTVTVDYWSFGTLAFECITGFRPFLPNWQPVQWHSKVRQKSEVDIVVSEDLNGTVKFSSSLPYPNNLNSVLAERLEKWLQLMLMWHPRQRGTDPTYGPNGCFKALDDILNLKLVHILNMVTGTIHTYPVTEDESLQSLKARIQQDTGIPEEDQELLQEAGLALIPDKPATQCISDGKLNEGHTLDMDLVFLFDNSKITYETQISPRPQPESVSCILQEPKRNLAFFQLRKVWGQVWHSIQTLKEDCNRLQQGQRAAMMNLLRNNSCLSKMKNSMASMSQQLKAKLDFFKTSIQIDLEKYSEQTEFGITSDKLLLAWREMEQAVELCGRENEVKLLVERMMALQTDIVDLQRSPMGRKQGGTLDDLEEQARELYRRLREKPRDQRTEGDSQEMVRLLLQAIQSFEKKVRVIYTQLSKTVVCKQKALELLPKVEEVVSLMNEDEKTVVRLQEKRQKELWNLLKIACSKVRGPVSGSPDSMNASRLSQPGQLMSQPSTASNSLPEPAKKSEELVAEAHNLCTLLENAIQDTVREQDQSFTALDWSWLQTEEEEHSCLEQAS
Format: biochemical
Excerpt: Materials: SAM^2™96 Biotin capture plates were from Promega. Anti-FLAG affinity resin, FLAG-peptide, NP-40 (Nonidet P-40), BSA, ATP, ADP, AMP, LPS (E. coli serotype 0111:B4), and dithiothreitol were obtained from Sigma Chemicals. Antibodies specific for NEMO (IKK-γ) (FL-419), IKK-1 (H-744), IKK-2(H-470) and IκBa(C-21) were purchased from Santa Cruz Biotechnology. Ni-NTA resin was purchased from Qiagen. Peptides were purchased from American Peptide Company. Protease inhibitor cocktail tablets were from Boehringer Mannheim. Sephacryl S-300 column was from Pharmacia LKB Biotechnology. Centriprep-10 concentrators with a molecular weight cutoff of 10 kDa and membranes with molecular weight cut-off of 30 kDa were obtained from Amicon. [γ-^33P] ATP (2500 Ci/mmol) and [γ-^32P] ATP (6000 Ci/mmol) were purchased from Amersham. The other reagents used were of the highest grade commercially available.
Cloning and Expression: cDNAs of human IKK-1 and IKK-2 were amplified by reverse transcriptase-polymerase chain reaction from human placental RNA (Clonetech). hlKK-1 was subcloned into pFastBac HTa (Life Technologies) and expressed as N-terminal His6-tagged fusion protein. The hlKK-2 cDNA was amplified using a reverse oligonucleotide primer which incorporated the peptide sequence for a FLAG-epitope tag at the C-terminus of the IKK-2 coding region (DYKDDDDKD). The hlKK-2:FLAG cDNA was subcloned into the baculovirus vector pFastBac. The rhIKK-2 ([…]) mutant was constructed in the same vector used for wild type rhIKK-2 using a QuikChange™ mutagenesis kit (Stratagene). Viral stocks of each construct were used to infect insect cells grown in 40 L suspension culture. […] Cell lysates were stored at −80° C. until purification of the recombinant proteins was undertaken as described below.
Enzyme Isolation: All purification procedures were carried out at 4° C. unless otherwise noted. Buffers used are: buffer A: 20 mM Tris-HCl, pH 7.6, containing 50 mM NaCl, 20 mM NaF, 20 mM β-Glycerophosphate, 500 μM sodium orthovanadate, 2.5 mM metabisulfite, 5 mM benzamidine, 1 mM EDTA, 0.5 mM EGTA, 10% glycerol, 1 mM DTT, 1× Complete™ protease inhibitors; buffer B: same as buffer A, except 150 mM NaCl, and buffer C: same as buffer A, except 500 mM NaCl.
Isolation of rhIKK-2 homodimer: A 10-liter culture of baculovirus-expressing IKK-2 tagged with FLAG peptide was centrifuged and the cell pellet (MOI=0.1 and 1=72 h) was re-suspended in buffer A. These cells were microfluidized, and centrifuged at 100,000×g for 45 min. Supernatant was passed over a G-25 column equilibrated with Buffer A. Protein peak was collected and incubated with anti-FLAG affinity resin on a rotator overnight in buffer B. The resin was washed in batch with 10-15 bed volumes of buffer C. Washed resin was poured into a column and rhIKK-2 homodimer was eluted using 5 bed volumes of buffer B containing FLAG peptide. 5 mM DTT, 0.1% NP-40 and BSA (concentrated to 0.1% in final amount) was added to the eluted enzyme before concentrating in using an Amicon membrane with a molecular weight cut-off of 30 kDa. Enzyme was aliquoted and stored at −80° C.
IKK-2 Resin Enzyme Assay: IKK-2 kinase activity was measured using a biotinylated IκBα peptide (Gly-Leu-Lys-Lys-Glu-Arg-Leu-Leu-Asp-Asp-Arg-His-Asp-Ser32-Gly-Leu-Asp-Ser36-Met-Lys-Asp-Glu-Glu) (American Peptide Co.). 20 μL of the standard reaction mixture contained 5 μM biotinylated IκBα peptide, 0.1 μCi/reaction [γ-^33P] ATP (Amersham) (about 1×10^5 cpm), 1 μM ATP (Sigma), 1 mM DTT (Sigma), 2 mM MgCl2 (Sigma), 2 mM MnCl2 (Sigma), 10 mM NaF (Sigma), 25 mM Hepes (Sigma) buffer, pH 7.6 and 20 μL enzyme solution and 10 μL inhibitor in a final volume of 50 μL. After incubation at 25° C. for 30 min, 150 μL resin (Dowex anion-exchange resin AG1X8 200-400 mesh) in 900 mM formate, pH 3.0 was added to each well to stop the reaction. Resin was allowed to settle for 1 h and 50 μL of supernatant was removed to a Micolite-2 flat bottom plate (Dynex). […]
In the case of `CCCCc1ccc(-c2cccc(-n3cc(NC(N)=O)c(C(N)=O)n3)c2)cc1` [Example 364, 4-[(aminocarbonyl)amino]-1-(4′-butyl-1,1′-biphenyl-3-yl)-1H-pyrazole-3-carboxamide], the IC50 is reported as 16.2 µM.
`CCOc1cc(-n2cc(NC(N)=O)c(C(N)=O)n2)ccc1-c1cccc(O)c1` [Example 230, 4-[(aminocarbonyl)amino]-1-(2-ethoxy-3′-hydroxy-1,1′-biphenyl-4-yl)-1H-pyrazole-3-carboxamide] was tested, and the IC50 was 2.02 µM.
Compound `Cc1ccc(-c2cccc(-n3cc(NC(N)=O)c(C(N)=O)n3)c2)cc1N` [Example 77, 4-[(aminocarbonyl)amino]-1-(3′-amino-4′-methyl-1,1′-biphenyl-3-yl)-1H-pyrazole-3-carboxamide] has an IC50 of 0.8 µM.
With `NC(=O)COc1ccc(F)cc1-c1ccc(-n2cc(NC(N)=O)c(C(N)=O)n2)cc1` [Example 252, 4-[(aminocarbonyl)amino]-1-[2′-(2-amino-2-oxoethoxy)-5′-fluoro-1,1′-biphenyl-4-yl]-1H-pyrazole-3-carboxamide] the IC50 was 0.492 µM.
`Cc1cc(F)ccc1-c1cccc(-n2cc(NC(N)=O)c(C(N)=O)n2)c1` [Example 345, 4-[(aminocarbonyl)amino]-1-(4′-fluoro-2′-methyl-1,1′-biphenyl-3-yl)-1H-pyrazole-3-carboxamide] was tested, and the IC50 was over 20 µM.
For `NC(=O)Nc1cn(-c2ccc(-c3cccc(OCc4ncco4)c3)cc2)nc1C(N)=O` [Example 254, 4-[(aminocarbonyl)amino]-1-[3′-(1,3-oxazol-2-ylmethoxy)-1,1′-biphenyl-4-yl]-1H-pyrazole-3-carboxamide], the IC50 was 0.352 µM.
In the case of `NC(=O)Nc1cn(-c2ccc(-c3ccccc3O)cc2)nc1C(N)=O` [Example 23, 4-[(aminocarbonyl)amino]-1-(2′-hydroxy-1,1′-biphenyl-4-yl)-1H-pyrazole-3-carboxamide], the IC50 is reported as 1.64 µM.
With `Cc1cc(-c2ccccc2O)ccc1-n1cc(NC(N)=O)c(C(N)=O)n1` [Example 235, 4-[(aminocarbonyl)amino]-1-(2′-hydroxy-3-methyl-1,1′-biphenyl-4-yl)-1H-pyrazole-3-carboxamide] the IC50 was 13.2 µM.
With `NC(=O)Nc1cn(-c2cc(Cl)ccc2F)nc1C(N)=O` [Example 246, 1-(5-chloro-2-fluoro-phenyl)-4-ureido-1H-pyrazole-3-carboxylic acid amide] the IC50 was 3.3 µM.
`NC(=O)Nc1cn(-c2ccc(-c3ccc(F)cc3)cc2)nc1C(N)=O` [Example 25, 4-[(aminocarbonyl)amino]-1-(4′-fluoro-1,1′-biphenyl-4-yl)-1H-pyrazole-3-carboxamide] showed an IC50 of 1.55 µM.
Compound `NC(=O)Nc1cn(-c2ccc(-c3cccc(O)c3)cc2)nc1C(N)=O` [Example 22, 4-[(aminocarbonyl)amino]-1-(3′-hydroxy-1,1′-biphenyl-4-yl)-1H-pyrazole-3-carboxamide] has an IC50 of 1.2 µM.
Compound `CS(=O)(=O)c1ccc(-c2cccc(-n3cc(NC(N)=O)c(C(N)=O)n3)c2)cc1` [Example 374, 4-[(aminocarbonyl)amino]-1-[4′-(methylsulfonyl)-1,1′-biphenyl-3-yl]-1H-pyrazole-3-carboxamide] has an IC50 of 0.544 µM.
`NC(=O)Nc1cn(-c2ccc(-c3ccc(C(=O)NCc4cccc(F)c4)c(F)c3)cc2)nc1C(N)=O` [Example 156, 4-[(aminocarbonyl)amino]-1-(3′-fluoro-4′-{[(3-fluorobenzyl)amino]carbonyl}-1,1′-biphenyl-4-yl)-1H-pyrazole-3-carboxamide] was tested, and the IC50 was 0.61 µM.
`N#CCOc1ccccc1-c1ccc(-n2cc(NC(N)=O)c(C(N)=O)n2)cc1` [Example 167, 4-[(aminocarbonyl)amino]-1-[2′-(cyanomethoxy)-1,1′-biphenyl-4-yl]-1H-pyrazole-3-carboxamide] showed an IC50 of 0.5 µM.
In the case of `NC(=O)Nc1cn(-c2ccc(-c3cccnc3)cc2)nc1C(N)=O` [Example 21, 4-[(aminocarbonyl)amino]-1-(4-pyridin-3-ylphenyl)-1H-pyrazole-3-carboxamide], the IC50 is reported as 2.86 µM.
`NC(=O)Nc1cn(-c2cccc(-c3ccc4c(c3)OCO4)c2)nc1C(N)=O` [Example 62, 4-[(aminocarbonyl)amino]-1-[3-(1,3-benzodioxol-5-yl)phenyl]-1H-pyrazole-3-carboxamide] was tested, and the IC50 was 7.91 µM.
`NC(=O)Nc1cn(-c2ccc(-c3ccc(CN4CCOCC4)cc3)cc2)nc1C(N)=O` [Example 34, 4-[(aminocarbonyl)amino]-1-[4′-(morpholin-4-ylmethyl)-1,1′-biphenyl-4-yl]-1H-pyrazole-3-carboxamide] gave an IC50 of 4.21 µM.
In the case of `Cc1ccc(-n2cc(NC(N)=O)c(C(N)=O)n2)cc1` [Example 18, 4-[(aminocarbonyl)amino]-1-(4-methylphenyl)-1H-pyrazole-3-carboxamide], the IC50 is reported as 0.3 µM.
`NC(=O)Nc1cn(-c2cccc(-c3ccccc3O)c2)nc1C(N)=O` [Example 71, 4-[(aminocarbonyl)amino]-1-(2′-hydroxy-1,1′-biphenyl-3-yl)-1H-pyrazole-3-carboxamide] gave an IC50 of 2.25 µM.
For `NC(=O)Nc1cn(-c2cccc(-c3cccc(C(N)=O)c3)c2)nc1C(N)=O` [Example 79, 4-[(aminocarbonyl)amino]-1-[3′-(aminocarbonyl)-1,1′-biphenyl-3-yl]-1H-pyrazole-3-carboxamide], the IC50 was 5.67 µM.
`NC(=O)Nc1cn(-c2ccc([S+]([O-])C3CCCC3)cc2)nc1C(N)=O` (stereo not drawn) [Example 283, 1-(3-carbamoyl-1-(4-(cyclopentylsulfinyl)phenyl)-1H-pyrazol-4-yl)urea] gave an IC50 of 0.431 µM.
Work on `NCc1cccc(-c2cccc(-n3cc(NC(N)=O)c(C(N)=O)n3)c2)c1` [Example 78, 4-[(aminocarbonyl)amino]-1-[3′-(aminomethyl)-1,1′-biphenyl-3-yl]-1H-pyrazole-3-carboxamide] yielded an IC50 of 0.81 µM.
Compound `CC(C)c1ccc(-c2ccc(-n3cc(C(N)=O)c(NC(N)=O)n3)cc2)cc1` [Example 117] has an IC50 of over 20 µM.
For `NC(=O)Nc1cn(-c2ccc(S(=O)(=O)c3ccc(F)cc3)c(Cl)c2)nc1C(N)=O` [Example 222, 4-[(aminocarbonyl)amino]-1-{3-chloro-4-[(4-fluorophenyl)sulfonyl]phenyl}-1H-pyrazole-3-carboxamide], the IC50 was over 20 µM.
